Laboratory results from US20210299282A1, “Device for Collecting and Culturing Fish Embryos and Method for Evaluating Combined Toxicity of Thiamethoxam and Tetraconazole” (priority 2020, published 2021).
In brackets after ≈: the same amount, converted by molar mass.

How the values were obtained:
[1] = Toxicity test for single pesticide on zebrafish embryos (96 h semi-static exposure); format: in vivo, Zebrafish (Danio rerio); conditions: zebrafish, in vivo; after 96 hours of exposure; single pesticide; embryos exposed from 3 hpf; read-out: LC50 and 95% confidence limits for zebrafish embryos when used alone
Experimental: (§1) S1: The embryo culture component 3 is assembled; toxicity exposure is performed after 3 hours post-fertilization (3 hpf) of embryos; after collecting the zebrafish embryos for 3 hours, the abnormal and dead embryos are removed, and the normally divided embryos are picked out under an inverted microscope, and the selected embryos are loaded in into the culture well 34 in an amount of 10 embryos per well; after removing the water as much as possible, 10 mL of single pesticide solution with different concentrations are added to each well in the treatment group separately, and an equal volume of standard dilution water is added to the blank control group and the solvent control group, respectively. Three replicates are set for each treatment group, blank control group and solvent control group, and every 2 wells are served as one replicate, that is, 20 embryos are one replicate. Each test pesticide is set with 5 to 7 concentrations using serial dilution method with a geometrical ratio, and each concentration is set with three repeats.
(§2) S2: The semi-static method is used, that is, the medium in the wells are replaced with fresh pesticide solution every 24 hours, and the dead embryos are picked out in time. When the medium is replaced with the fresh pesticide solution, the top plate 32 is pulled up, the original culture medium flows through the leakage hole 35 into the cavity of the cavity plate 31, and then the original culture medium is poured out together. Then, the top plate 32 is mounted on the cavity plate 31, and the fresh pesticide solution is added to the culture well 34 loaded with embryos.
(§3) S3: After 96 hours of toxicity exposure, the embryo mortality and poisoning symptoms are recorded. Embryo death was characterized by egg coagulation, somite disruption, non-detachment of tail or lack of heartbeat; common symptoms of embryo poisoning include the following deformities: egg coagulation, pericardial edema, yolk sac edema, spine curvature, tail bending, and others (FIG. 5). The mortality M is calculated according to the formula (I),
(§4) In formula (I), D is the number of dead embryos and N is the total number of embryos. DPS statistical analysis software (version number: V15.10) is used to statistically analyze the mortality data of zebrafish embryos with the probabilistic value analysis method, and the 50% lethal concentration LC50 and 95% confidence limits of the fish embryos are calculated.

zebrafish embryos = experiment: as above; format: in vivo, Zebrafish (Danio rerio); conditions: single pesticide treatment group; 96 h exposure (tetraconazole: high concentration group)
Experimental: as §1, §2, §3, §4

Structure (SMILES): FC(F)C(F)(F)OCC(Cn1cncn1)c1ccc(Cl)cc1Cl (stereo not shown) [tetraconazole]
- LC50 at 96 h [1]: 11 µg/mL (≈ 29.5 µM)
- poisoning symptoms of zebrafish embryos (zebrafish embryos): pericardial edema, yolk sac edema, spine curvature, tail bending, and others were observed

Structure (SMILES): CN1COCN(Cc2cnc(Cl)s2)/C1=N\[N+](=O)[O-] [thiamethoxam]
- LC50 at 96 h [1]: 246 µg/mL (≈ 844 µM)
- poisoning symptoms of zebrafish embryos (zebrafish embryos): not obvious
